Experimental data from article PMC6156125, “Chemistry and Hypoglycemic Activity of GPR119 Agonist ZB-16” (Frontiers in Endocrinology, 2018).
Converted amounts (≈) assume the structure as drawn.

What was measured:
HepG2 cell culture = assay: Cell toxicity in vitro, Cell Titer Glo cell viability (ATP); type: cell-based, human; conditions: Figure 3
Method: Cell viability was estimated by the quantity of ATP produced by the HepG2 cell culture, derived from human liver hepatocellular carcinoma. Experiments were performed using a Cell Titer Glo Cell Viability (Promega) test system ([17]). Tubercidin, an inhibitor of various cellular metabolic processes, including RNA processing, nucleic acid synthesis, protein synthesis, and methylation of tRNA through intracellular incorporation into nucleic acids, was used as a positive control ([18]). Median inhibitory concentration (IC50) was used as a quantitative parameter to evaluate cell toxicity. To evaluate inhibition effectiveness (% Inh), the following formula was used: % Inh = [(Lpos − Lexp)/(Lpos − Lneg)] ^* 100%, where Lpos is the positive control (luminescence in cells with no compound); Lneg is the negative control (luminescence in cells containing medium but no cells); and Lexp is the luminescence in cells containing the compound at a certain concentration. IC50 values were calculated using Prism 5 and the criteria for minimization of the experimental points squares deviation from the theoretically calculated curve algorithm.

human GPR119 (hGPR119) = target: T1, human GPR119 (hGPR119) (Homo sapiens, UniProt Q8TDV5); assay: Specific (agonistic) activity in vitro, cAMP increase (Lance Ultra cAMP kit) in CHO-K1 cells expressing hGPR119; type: cell-based; conditions: for EC50: CHO-K1 hGPR119, cAMP
T1 construct: expressed in transfected cells; host or cells: CHO-K1 (Chinese hamster ovary)
T1 sequence (Q8TDV5 1-335): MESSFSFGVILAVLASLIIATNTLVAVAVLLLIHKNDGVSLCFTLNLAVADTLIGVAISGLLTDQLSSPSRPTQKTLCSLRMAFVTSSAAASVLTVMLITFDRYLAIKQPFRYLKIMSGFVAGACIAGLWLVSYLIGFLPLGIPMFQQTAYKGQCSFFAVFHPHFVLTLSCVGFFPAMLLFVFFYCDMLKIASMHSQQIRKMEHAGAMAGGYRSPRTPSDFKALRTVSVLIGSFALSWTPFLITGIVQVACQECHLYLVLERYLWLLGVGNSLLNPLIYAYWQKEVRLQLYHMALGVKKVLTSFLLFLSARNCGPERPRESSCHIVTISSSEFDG
Method: Specific activity was evaluated using an immortalized Chinese hamster ovary cell line CHO-K1 steadily expressed human GPR119 (hGPR119). The cells (10^7 ml^−1) were cultured in Dulbecco's modified Eagle medium (DMEM) modified with 10% fetal bovine serum (FBS), revolved continuously at 50 rpm at 37°C in 8% CO2 for 3–4 days. Lance Ultra cAMP kit (Perkin Elmer, Waltham, MA, USA) was chosen as the experimental platform ([13]). The experiments were performed in accordance to the manufacturer's instructions. The agonistic activity of the test compounds was estimated by the increase in intracellular cAMP concentration, assuming the hGPR119 activation is followed by the activation of cellular adenylate cyclase, which increases intracellular cAMP levels ([4], [14]). Known agonists of hGPR119 receptors were used as positive controls to determine the maximal possible effect (MPE). The activity of test compounds was expressed in terms of median effective concentration (EC50).

physchem = conditions: Britton-Robinson universal buffer, kinetic from dmso stock
[1] = Biotransformation in vitro, microsomal stability (human); type: in vitro ADME
Method: The metabolism of the compounds was studied in commercially available microsomal fractions derived from human and rat hepatocytes. Test compounds (0.5 μM) were incubated with microsomal fractions in the presence of NADPH during 30 min in a shaker at 37°C. Reactions were stopped at 0, 5, 10, 15, and 30 min by adding acetonitrile. After proteins precipitation, the remaining amount of the test compound in the supernatant was detected with high performance liquid chromatography tandem-mass spectrometry (HPLC-MS/MS) method using Agilent 1260 liquid chromatograph (Agilent Technologies, Santa Clara, CA, USA) and a QTRAP6500 triple quadrupole mass spectrometer with a TurboIonSpray electro-spraying module (ABSciex, Foster City, CA, USA) ([15]). Incubation was performed twice, with at least 2 measurements for each replicate (n ≥ 3). The half-life (T1/2), the clearance in vitro (CLint) and the remaining amount of substance (% of initial quantity) were calculated.

CYP2C19 = target: T2, CYP2C19 (Homo sapiens, UniProt P33261); assay: CYP inhibition, Vivid CYP450 Screening Kit; type: in vitro ADME; conditions: 0.0046 to 10 μM tested
T2 construct: purchased Invitrogen Corporation, Carlsbad, CA, USA
Method: (§1) Briefly, the reaction was initiated by adding NADP^+ and a substrate converted to fluorescent derivates by specific CYP isozyme. The reaction was terminated by adding 1M Tris. The fluorescence of the reaction product, which was proportional to CYP isozyme activity, was measured. […] The minimal signal was defined as the signal obtained without enzyme incubation. The inhibitory action of test compounds on the CYP isozymes was expressed in terms of median inhibitory concentration (IC50).

CYP2C9 = target: T3, CYP2C9 (Homo sapiens, UniProt P11712); assay: CYP inhibition, Vivid CYP450 Screening Kit; type: in vitro ADME; conditions: 0.0046 to 10 μM tested
T3 construct: purchased Invitrogen Corporation, Carlsbad, CA, USA
Method: as §1

CYP1A2 = target: T4, CYP1A2 (Homo sapiens, UniProt P05177); assay: CYP inhibition, Vivid CYP450 Screening Kit; type: in vitro ADME; conditions: 0.0046 to 10 μM tested
T4 construct: purchased Invitrogen Corporation, Carlsbad, CA, USA
T4 sequence (P05177 1-516): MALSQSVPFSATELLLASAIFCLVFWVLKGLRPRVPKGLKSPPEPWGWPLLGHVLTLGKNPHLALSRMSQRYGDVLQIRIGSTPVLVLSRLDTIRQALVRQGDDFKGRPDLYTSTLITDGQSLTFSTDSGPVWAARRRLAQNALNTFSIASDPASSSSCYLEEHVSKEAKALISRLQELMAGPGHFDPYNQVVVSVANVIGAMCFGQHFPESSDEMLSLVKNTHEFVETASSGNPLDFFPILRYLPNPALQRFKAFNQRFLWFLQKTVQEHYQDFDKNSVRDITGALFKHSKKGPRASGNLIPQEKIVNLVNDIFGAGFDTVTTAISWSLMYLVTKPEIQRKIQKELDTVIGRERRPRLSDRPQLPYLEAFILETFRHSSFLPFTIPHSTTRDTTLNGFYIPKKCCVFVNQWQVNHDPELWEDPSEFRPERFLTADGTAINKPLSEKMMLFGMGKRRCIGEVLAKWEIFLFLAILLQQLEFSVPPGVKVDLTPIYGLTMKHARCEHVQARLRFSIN
Method: as §1

CYP2D6 = target: T5, CYP2D6 (Homo sapiens, UniProt P10635); assay: CYP inhibition, Vivid CYP450 Screening Kit; type: in vitro ADME; conditions: 0.0046 to 10 μM tested
T5 construct: purchased Invitrogen Corporation, Carlsbad, CA, USA
Method: as §1

CYP3A4 = target: T6, CYP3A4 (Homo sapiens, UniProt P08684); assay: CYP inhibition, Vivid CYP450 Screening Kit; type: in vitro ADME; conditions: 0.0046 to 10 μM tested
T6 construct: purchased Invitrogen Corporation, Carlsbad, CA, USA
Method: as §1

T3 sequence (P11712 whole entry): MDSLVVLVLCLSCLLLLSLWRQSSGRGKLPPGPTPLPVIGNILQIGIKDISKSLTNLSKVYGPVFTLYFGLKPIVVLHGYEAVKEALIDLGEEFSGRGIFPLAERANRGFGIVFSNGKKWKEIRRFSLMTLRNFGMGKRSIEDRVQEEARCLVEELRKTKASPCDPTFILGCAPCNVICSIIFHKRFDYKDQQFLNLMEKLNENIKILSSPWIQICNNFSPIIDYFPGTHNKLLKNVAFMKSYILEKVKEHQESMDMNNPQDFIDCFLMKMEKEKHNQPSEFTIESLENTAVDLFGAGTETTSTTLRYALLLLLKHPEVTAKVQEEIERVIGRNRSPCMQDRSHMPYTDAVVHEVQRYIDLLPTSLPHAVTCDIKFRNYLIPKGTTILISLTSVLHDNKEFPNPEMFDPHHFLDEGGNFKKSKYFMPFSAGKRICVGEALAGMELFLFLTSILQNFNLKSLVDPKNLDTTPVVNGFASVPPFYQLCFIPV
T6 sequence (P08684 whole entry): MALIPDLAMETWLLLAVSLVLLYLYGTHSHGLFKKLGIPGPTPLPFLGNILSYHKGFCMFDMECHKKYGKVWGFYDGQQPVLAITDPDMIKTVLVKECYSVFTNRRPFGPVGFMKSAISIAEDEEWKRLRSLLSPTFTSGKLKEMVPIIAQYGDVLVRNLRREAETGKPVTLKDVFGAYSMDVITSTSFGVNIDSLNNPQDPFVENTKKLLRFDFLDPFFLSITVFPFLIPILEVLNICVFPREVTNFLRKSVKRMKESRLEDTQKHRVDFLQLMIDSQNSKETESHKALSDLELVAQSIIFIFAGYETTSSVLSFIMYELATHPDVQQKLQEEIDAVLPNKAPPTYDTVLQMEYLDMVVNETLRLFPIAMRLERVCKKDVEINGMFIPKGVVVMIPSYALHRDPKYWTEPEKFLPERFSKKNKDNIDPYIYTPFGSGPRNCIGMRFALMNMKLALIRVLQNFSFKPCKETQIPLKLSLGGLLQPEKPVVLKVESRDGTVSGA
T5 sequence (P10635 whole entry): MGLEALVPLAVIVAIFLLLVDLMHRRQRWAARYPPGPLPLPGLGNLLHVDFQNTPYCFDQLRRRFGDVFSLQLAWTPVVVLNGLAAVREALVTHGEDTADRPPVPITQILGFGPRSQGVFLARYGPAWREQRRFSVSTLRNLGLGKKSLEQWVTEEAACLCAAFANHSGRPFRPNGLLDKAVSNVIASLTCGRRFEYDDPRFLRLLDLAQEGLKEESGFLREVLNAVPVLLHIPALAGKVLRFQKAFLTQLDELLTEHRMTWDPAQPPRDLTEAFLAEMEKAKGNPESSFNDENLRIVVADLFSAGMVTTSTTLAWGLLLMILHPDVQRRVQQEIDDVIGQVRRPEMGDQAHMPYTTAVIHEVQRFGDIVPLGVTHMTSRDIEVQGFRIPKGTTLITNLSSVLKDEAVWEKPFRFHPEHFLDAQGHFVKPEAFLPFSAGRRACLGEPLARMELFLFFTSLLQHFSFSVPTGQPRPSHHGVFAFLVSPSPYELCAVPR
T2 sequence (P33261 whole entry): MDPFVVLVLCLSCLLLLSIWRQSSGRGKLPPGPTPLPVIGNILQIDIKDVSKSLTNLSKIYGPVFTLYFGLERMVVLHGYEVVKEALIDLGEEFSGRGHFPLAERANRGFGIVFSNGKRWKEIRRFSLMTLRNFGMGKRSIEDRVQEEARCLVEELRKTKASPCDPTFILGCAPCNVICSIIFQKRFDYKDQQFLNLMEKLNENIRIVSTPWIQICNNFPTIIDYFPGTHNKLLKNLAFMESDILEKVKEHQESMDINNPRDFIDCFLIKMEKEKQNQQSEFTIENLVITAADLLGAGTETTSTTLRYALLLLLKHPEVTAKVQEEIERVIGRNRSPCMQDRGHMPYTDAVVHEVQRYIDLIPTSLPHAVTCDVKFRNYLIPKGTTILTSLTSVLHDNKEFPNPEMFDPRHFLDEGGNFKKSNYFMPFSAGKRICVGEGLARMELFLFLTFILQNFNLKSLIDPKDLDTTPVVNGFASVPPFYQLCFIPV

O=S1(=O)COc2cc(-c3ccc(OCC4CCN(c5ncc(Cl)cn5)CC4)c(F)c3)ccc21 [ZB-16]
effect on HepG2 cell culture viability (HepG2 cell culture): no effect
EC50 (human GPR119 (hGPR119)): 0.00725 µM
EC50 (human GPR119 (hGPR119); values of the text): 0.0073 to 0.0097 µM
type of agonism on GPR119 (human GPR119 (hGPR119); response normalized to control substance (Arena)): complete agonist
solubility (physchem; pH 2, aqueous buffer): 52 µM (≈ 25.5 µg/mL)
solubility (physchem; pH 4, aqueous buffer): < 3 µM
solubility (physchem; pH 7, aqueous buffer): 4 µM (≈ 1.96 µg/mL)
ER ([1]; Human microsomal fraction): 0.76
CLh ([1]; Human microsomal fraction, in mL/min/kg (unit assumed)): 16.43
microsomal CLint at 0.5 μM ([1]; liver microsomal fraction): 65.2 µL/min/mg
half-life at 0.5 μM ([1]; liver microsomal fraction, 0.5 μM, NADPH, read-out: t1/2, min): 42.5 min
IC50 (CYP2C19): > 10 µM
IC50 (CYP2C9): > 10 µM
IC50 (CYP1A2): > 10 µM
IC50 (CYP2D6): > 10 µM
IC50 (CYP3A4): > 10 µM
